Measurements as given in patent publication US20260347373A1, “HETEROCYCLIC COMPOUNDS, COMPOSITIONS THEREOF, AND METHODS OF TREATMENT THEREWITH” (BeOne Medicines I GmbH, priority 2023, published 2026).
Where two headings read alike, the source gives them in different places.

Key:
KRAS G12D = KRAS G12D (Homo sapiens, UniProt P01116, G12D); assay: KRAS G12D Probe Displacement Assay (TR-FRET, GDP-loaded); assay type: binding
Text: (§1) The synthetic routes of probe 1 and 2, which have been disclosed in PCT/CN2022/070676, are hereby incorporated herein.

WT KRAS = WT KRAS (Homo sapiens, UniProt P01116); assay: KRAS WT Probe Displacement Assay (TR-FRET, GDP-loaded); assay type: binding
WT KRAS, sequence (P01116 1-188 isoform P01116-2): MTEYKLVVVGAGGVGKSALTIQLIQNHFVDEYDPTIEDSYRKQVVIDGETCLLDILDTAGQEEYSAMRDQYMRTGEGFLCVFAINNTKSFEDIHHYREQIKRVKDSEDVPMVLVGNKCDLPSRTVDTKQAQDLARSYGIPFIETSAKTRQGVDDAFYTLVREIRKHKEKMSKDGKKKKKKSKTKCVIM
Text: as §1

[1] = KRAS G12D, read-out: KRAS^G12D Probe Displacement Assay IC50
[2] = KRAS WT, read-out: KRAS^WT Probe Displacement Assay IC50
[3] = KRAS^G12D Probe Displacement Assay IC50, KRAS G12D
[4] = KRAS^WT Probe Displacement Assay IC50, KRAS WT

KRAS G12D, sequence (P01116 1-188 isoform P01116-2 G12D): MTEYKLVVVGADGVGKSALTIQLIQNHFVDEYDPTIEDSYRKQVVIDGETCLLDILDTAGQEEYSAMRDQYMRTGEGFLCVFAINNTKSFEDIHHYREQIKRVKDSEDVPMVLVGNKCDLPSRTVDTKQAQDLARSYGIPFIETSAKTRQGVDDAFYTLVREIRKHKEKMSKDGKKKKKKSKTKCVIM

| Compound | IC50 (KRAS G12D; [1]) [nM] | IC50 (WT KRAS; [2]) [nM] | IC50 (KRAS G12D; [3]) [nM] | IC50 (WT KRAS; [4]) [nM] |
| --- | --- | --- | --- | --- |
| Cc1nc(N)cc(-c2nc3c4c(nc(OCC5(CN6CCC(=C(F)F)CC6)CC5)nc4c2F)N2C[C@H]4CC[C@H](N4)[C@H]2CCO3)c1C(F)(F)F [Example 147, 4-((6aR,7S,10R)-13-((1-((4-(difluoromethylene)piperidin-1-yl)methyl)cyclopropyl)methoxy)-1-fluoro-5,6,6a,7,8,9,10,11-octahydro-4-oxa-3,11a,12,14,15-pentaaza-7,10-methano-cyclohepta[4,5]cycloocta [1,2,3-de]naphthalen-2-yl)-6-methyl-5-(trifluoromethyl)pyridin-2-amine] | < 0.3 | 3 to 1000 |  |  |
| Nc1cc(Cl)c(C(F)(F)F)c(-c2nc3c4c(nc(OCC5(CN6CCC(=C(F)F)CC6)CC5)nc4c2F)N2C[C@H]4CC[C@H](N4)[C@H]2CCO3)c1 [Example 148, 3-chloro-5-((6aR,7S,10R)-13-((1-((4-(difluoromethylene)piperidin-1-yl)methyl)cyclopropyl)methoxy)-1-fluoro-5,6,6a,7,8,9,10,11-octahydro-4-oxa-3,11a,12,14,15-pentaaza-7,10-methano-cyclohepta[4,5]cycloocta [1,2,3-de]naphthalen-2-yl)-4-(trifluoromethyl)aniline] | < 0.3 | 0.3 to 3 |  |  |
| Cc1cc(N)cc(-c2nc3c4c(nc(OCC5(CN6CCC(=C(F)F)C6)CC5)nc4c2F)N2C[C@H]4CC[C@H](N4)[C@H]2CCO3)c1C(F)(F)F [Example 149, 3-((6aR,7S,10R)-13-((1-((3-(difluoromethylene)pyrrolidin-1-yl)methyl)cyclopropyl)methoxy)-1-fluoro-5,6,6a,7,8,9,10,11-octahydro-4-oxa-3,11a,12,14,15-pentaaza-7,10-methano-cyclohepta[4,5]cycloocta [1,2,3-de]naphthalen-2-yl)-5-methyl-4-(trifluoromethyl) aniline] |  |  | < 0.3 | 3 to 1000 |
| Cc1nc(N)cc(-c2nc3c4c(nc(OCC5(CN6CCC(=C(F)F)C6)CC5)nc4c2F)N2C[C@H]4CC[C@H](N4)[C@H]2CCO3)c1C(F)(F)F [Example 150, 4-((6aR,7S,10R)-13-((1-((3-(difluoromethylene)pyrrolidin-1-yl)methyl)cyclopropyl)methoxy)-1-fluoro-5,6,6a,7,8,9,10,11-octahydro-4-oxa-3,11a,12,14,15-pentaaza-7,10-methano-cyclohepta[4,5]cycloocta [1,2,3-de]naphthalen-2-yl)-6-methyl-5-(trifluoromethyl)pyridin-2-amine] | < 0.3 | 3 to 1000 |  |  |
| Nc1cc(Cl)c(C(F)(F)F)c(-c2nc3c4c(nc(OCC5(CN6CCC(=C(F)F)C6)CC5)nc4c2F)N2C[C@H]4CC[C@H](N4)[C@H]2CCO3)c1 [Example 151, 3-chloro-5-((6aR,7S,10R)-13-((1-((3-(difluoromethylene)pyrrolidin-1-yl)methyl)cyclopropyl)methoxy)-1-fluoro-5,6,6a,7,8,9,10,11-octahydro-4-oxa-3,11a,12,14,15-pentaaza-7,10-methano-cyclohepta[4,5]cycloocta [1,2,3-de]naphthalen-2-yl)-4-(trifluoromethyl)aniline] | < 0.3 | 3 to 1000 |  |  |
| CCN1CCN(CC2(COc3nc4c5c(nc(-c6cc(N)cc(C)c6C(F)(F)F)c(F)c5n3)OCC[C@@H]3[C@@H]5CC[C@H](CN43)N5)CC2)CC1 [Example 152, 3-((6aR,7S,10R)-13-((1-((4-ethylpiperazin-1-yl)methyl)cyclopropyl)methoxy)-1-fluoro-5,6,6a,7,8,9,10,11-octahydro-4-oxa-3,11a,12,14,15-pentaaza-7,10-methano-cyclohepta[4,5]cycloocta [1,2,3-de]naphthalen-2-yl)-5-methyl-4-(trifluoromethyl) aniline] |  |  | < 0.3 | 3 to 1000 |
| Cc1cc(N)cc(-c2nc3c4c(nc(OCC5(CN6CCOCC(F)C6)CC5)nc4c2F)N2C[C@H]4CC[C@H](N4)[C@H]2CCO3)c1C(F)(F)F (stereo partly drawn) [Example 153, 3-((6aR,7S,10R)-1-fluoro-13-((1-((6-fluoro-1,4-oxazepan-4-yl)methyl)cyclopropyl)methoxy)-5,6,6a,7,8,9,10,11-octahydro-4-oxa-3,11a,12,14,15-pentaaza-7,10-methano-cyclohepta[4,5]cycloocta [1,2,3-de]naphthalen-2-yl)-5-methyl-4-(trifluoromethyl) aniline] |  |  | < 0.3 | 3 to 1000 |
| Cc1cc(N)cc(-c2nc3c4c(nc(OCC5(CN6CCC(=CF)CC6)CC5)nc4c2F)N2C[C@H]4CC[C@H](N4)[C@H]2CCO3)c1C(F)(F)F [Example 154, 3-((6aR,7S,10R)-1-fluoro-13-((1-((4-(fluoromethylene)piperidin-1-yl)methyl)cyclopropyl)methoxy)-5,6,6a,7,8,9,10,11-octahydro-4-oxa-3,11a,12,14,15-pentaaza-7,10-methanocyclohepta[4,5]cycloocta [1,2,3-de]naphthalen-2-yl)-5-methyl-4-(trifluoromethyl)aniline] | < 0.3 | 0.3 to 3 |  |  |
| Cc1nc(N)cc(-c2nc3c4c(nc(OCC5(CN6CCC(=CF)CC6)CC5)nc4c2F)N2C[C@H]4CC[C@H](N4)[C@H]2CCO3)c1C(F)(F)F [Example 155, 4-((6aR,7S,10R)-1-fluoro-13-((1-((4-(fluoromethylene)piperidin-1-yl)methyl)cyclopropyl)methoxy)-5,6,6a,7,8,9,10,11-octahydro-4-oxa-3,11a,12,14,15-pentaaza-7,10-methanocyclohepta[4,5]cycloocta [1,2,3-de]naphthalen-2-yl)-6-methyl-5-(trifluoromethyl)pyridin-2-amine] | < 0.3 | 3 to 1000 |  |  |
| Nc1cc(Cl)c(C(F)(F)F)c(-c2nc3c4c(nc(OCC5(CN6CCC(=CF)CC6)CC5)nc4c2F)N2C[C@H]4CC[C@H](N4)[C@H]2CCO3)c1 [Example 156, 3-chloro-5-((6aR,7S,10R)-1-fluoro-13-((1-((4-(fluoromethylene)piperidin-1-yl)methyl)cyclopropyl)methoxy)-5,6,6a,7,8,9,10,11-octahydro-4-oxa-3,11a,12,14,15-pentaaza-7,10-methanocyclohepta[4,5]cycloocta [1,2,3-de]naphthalen-2-yl)-4-(trifluoromethyl)aniline] | < 0.3 | 0.3 to 3 |  |  |
| Cc1cc(N)cc(-c2nc3c4c(nc(OCC5(CN6CC[C@H](F)C6)CC5)nc4c2F)N2C[C@H]4CC[C@H](N4)[C@H]2CCO3)c1C(F)(F)F [Example 157, 3-((6aR,7S,10R)-1-fluoro-13-((1-(((S)-3-fluoropyrrolidin-1-yl)methyl)cyclopropyl)methoxy)-5,6,6a,7,8,9,10,11-octahydro-4-oxa-3,11a,12,14,15-pentaaza-7,10-methanocyclohepta[4,5]cycloocta[1,2,3-de]naphthalen-2-yl)-5-methyl-4-(trifluoromethyl)aniline] | < 0.3 | 3 to 1000 |  |  |
| Cc1cc(N)cc(-c2nc3c4c(nc(OCC5(CN6CCC7(CC6)CC7(F)F)CC5)nc4c2F)N2C[C@H]4CC[C@H](N4)[C@H]2CCO3)c1C(F)(F)F [Example 158, 3-((6aR,7S,10R)-13-((1-((1,1-difluoro-6-azaspiro[2.5]octan-6-yl)methyl)cyclopropyl)methoxy)-1-fluoro-5,6,6a,7,8,9,10,11-octahydro-4-oxa-3,11a,12,14,15-pentaaza[7,10]methanocyclohepta[4,5]cycloocta[1,2,3-de]naphthalen-2-yl)-5-methyl-4-(trifluoromethyl)aniline] | < 0.3 | 0.3 to 3 |  |  |
| Cc1cc(N)cc(-c2nc3c4c(nc(OCC5(CN6CCSCC6)CC5)nc4c2F)N2C[C@H]4CC[C@H](N4)[C@H]2CCO3)c1C(F)(F)F [Example 159, 3-((6aR,7S,10R)-1-fluoro-13-((1-(thiomorpholinomethyl)cyclopropyl)methoxy)-5,6,6a,7,8,9,10,11-octahydro-4-oxa-3,11a,12,14,15-pentaaza-7,10-methanocyclohepta[4,5]cycloocta[1,2,3-de]naphthalen-2-yl)-5-methyl-4-(trifluoromethyl)aniline] | < 0.3 | 0.3 to 3 |  |  |
| Cc1cc(N)cc(-c2nc3c4c(nc(OCC5(CN6CC=C[C@H]6C)CC5)nc4c2F)N2C[C@H]4CC[C@H](N4)[C@H]2CCO3)c1C(F)(F)F [Example 160, 3-((6aR,7S,10R)-1-fluoro-13-((1-(((R)-2-methyl-2,5-dihydro-1H-pyrrol-1-yl)methyl)cyclopropyl)methoxy)-5,6,6a,7,8,9,10,11-octahydro-4-oxa-3,11a,12,14,15-pentaaza-7,10-methanocyclohepta[4,5]cycloocta[1,2,3-de]naphthalen-2-yl)-5-methyl-4-(trifluoromethyl)aniline] | < 0.3 | 3 to 1000 |  |  |
| Cc1cc(N)cc(-c2nc3c4c(nc(OCC5(CN6CC=CC6CO)CC5)nc4c2F)N2C[C@H]4CC[C@H](N4)[C@H]2CCO3)c1C(F)(F)F (stereo partly drawn) [Example 161, (1-((1-((((6aR,7S,10R)-2-(5-amino-3-methyl-2-(trifluoromethyl)phenyl)-1-fluoro-5,6,6a,7,8,9,10,11-octahydro-4-oxa-3,11a,12,14,15-pentaaza-7,10-methanocyclohepta[4,5]cycloocta[1,2,3-de]naphthalen-13-yl)oxy)methyl)cyclopropyl)methyl)-2,5-dihydro-1H-pyrrol-2-yl)methanol] | < 0.3 | 3 to 1000 |  |  |
| Cc1cc(N)cc(-c2nc3c4c(nc(OCC5(CN6CC=CC6C6(O)CC6)CC5)nc4c2F)N2C[C@H]4CC[C@H](N4)[C@H]2CCO3)c1C(F)(F)F (stereo partly drawn) [Example 162, 1-(1-((1-((((6aR,7S,10R)-2-(5-amino-3-methyl-2-(trifluoromethyl)phenyl)-1-fluoro-5,6,6a,7,8,9,10,11-octahydro-4-oxa-3,11a,12,14,15-pentaaza-7,10-methanocyclohepta[4,5]cycloocta[1,2,3-de]naphthalen-13-yl)oxy)methyl)cyclopropyl)methyl)-2,5-dihydro-1H-pyrrol-2-yl)cyclopropan-1-ol] | < 0.3 | 3 to 1000 |  |  |
